Test results: ChEMBL document CHEMBL6109104, “Synthesis and antibacterial evaluations of novel vancomycin analogues targeting bacteria membrane to combat Gram-negative infections” (Eur J Med Chem, 2025)
≈ marks a conversion by molar mass, not a printed value.

Columns and labels:
Format in all cases: functional
Details in all cases: time 16-18 hrs
Staphylococcus aureus [1] = test: Antibacterial activity against methicillin-resistant Staphylococcus aureus USA300 incubated for 16 to 18 hrs by muller hinton broth based microplate reader analysis
Staphylococcus aureus [2] = test: Antibacterial activity vancomycin-intermediate resistant Staphylococcus aureus incubated for 16 to 18 hrs by muller hinton broth based microplate reader analysis
Escherichia coli [3] = test: Antibacterial activity against Escherichia coli ATCC25922 incubated for 16 to 18 hrs by muller hinton broth based microplate reader analysis
Escherichia coli [4] = test: Antibacterial activity against Escherichia coli ATCC35150 incubated for 16 to 18 hrs by muller hinton broth based microplate reader analysis
Acinetobacter baumannii [5] = test: Antibacterial activity against Acinetobacter baumannii ATCC17978 incubated for 16 to 18 hrs by muller hinton broth based microplate reader analysis
Acinetobacter baumannii [6] = test: Antibacterial activity against Acinetobacter baumannii ATCC19606 incubated for 16 to 18 hrs by muller hinton broth based microplate reader analysis

SMILES | MIC (Staphylococcus aureus [1]) [µg/mL] | MIC (Staphylococcus aureus [2]) [µg/mL] | MIC (Escherichia coli [3]) [µg/mL] | MIC (Escherichia coli [4]) [µg/mL] | MIC (Acinetobacter baumannii [5]) [µg/mL] | MIC (Acinetobacter baumannii [6]) [µg/mL]
CN[C@H](CC(C)C)C(=O)N[C@H]1C(=O)N[C@@H](CC(N)=O)C(=O)N[C@H]2C(=O)N[C@H]3C(=O)N[C@H](C(=O)N[C@H](C(=O)O)c4cc(O)cc(O)c4-c4cc3ccc4O)[C@H](O)c3ccc(c(Cl)c3)Oc3cc2cc(c3O[C@@H]2O[C@H](CO)[C@@H](O)[C@H](O)[C@H]2O[C@H]2C[C@](C)(NC(=O)CCCCCCCCCCC[n+]3cccc(NC(=O)OC(C)(C)C)c3)[C@H](O)[C@H](C)O2)Oc2ccc(cc2Cl)[C@H]1O.[Br-] | 4 | > 128 | > 128 | > 128 | > 128 | > 128
CCCCCCCCCC[N+]1(C)CCN(C(=O)c2ccc(CN[C@@]3(C)C[C@H](O[C@H]4[C@H](Oc5c6cc7cc5Oc5ccc(cc5Cl)[C@@H](O)[C@@H](NC(=O)[C@@H](CC(C)C)NC)C(=O)N[C@@H](CC(N)=O)C(=O)N[C@H]7C(=O)N[C@H]5C(=O)N[C@H](C(=O)N[C@H](C(=O)O)c7cc(O)cc(O)c7-c7cc5ccc7O)[C@H](O)c5ccc(c(Cl)c5)O6)O[C@H](CO)[C@@H](O)[C@@H]4O)O[C@@H](C)[C@H]3O)cc2)CC1.[Br-] | 1 | 64 | 64 | 64 | > 128 | 64
CCCCCCCCCC[n+]1ccc(C(=O)NCCNC(=O)[C@H]2NC(=O)[C@H]3NC(=O)[C@H](NC(=O)[C@@H]4NC(=O)[C@H](CC(N)=O)NC(=O)[C@H](NC(=O)[C@@H](CC(C)C)NC)[C@H](O)c5ccc(c(Cl)c5)Oc5cc4cc(c5O[C@@H]4O[C@H](CO)[C@@H](O)[C@H](O)[C@H]4O[C@H]4C[C@](C)(N)[C@H](O)[C@H](C)O4)Oc4ccc(cc4Cl)[C@H]3O)c3ccc(O)c(c3)-c3c(O)cc(O)cc32)cc1.[Br-] | 2 | 64 | > 128 | > 128 | 32 | 16
CN[C@H](CC(C)C)C(=O)N[C@H]1C(=O)N[C@@H](CC(N)=O)C(=O)N[C@H]2C(=O)N[C@H]3C(=O)N[C@H](C(=O)N[C@H](C(=O)O)c4cc(O)cc(O)c4-c4cc3ccc4O)[C@H](O)c3ccc(c(Cl)c3)Oc3cc2cc(c3O[C@@H]2O[C@H](CO)[C@@H](O)[C@H](O)[C@H]2O[C@H]2C[C@](C)(NC(=O)CCCCCCC[n+]3ccc(C)cc3)[C@H](O)[C@H](C)O2)Oc2ccc(cc2Cl)[C@H]1O.[Br-] | 8 | > 128 | > 128 | > 128 | > 128 | > 128
CCCCCCCCCCCCCC[N+]1(C)CCN(C(=O)[C@H]2NC(=O)[C@H]3NC(=O)[C@H](NC(=O)[C@@H]4NC(=O)[C@H](CC(N)=O)NC(=O)[C@H](NC(=O)[C@@H](CC(C)C)NC)[C@H](O)c5ccc(c(Cl)c5)Oc5cc4cc(c5O[C@@H]4O[C@H](CO)[C@@H](O)[C@H](O)[C@H]4O[C@H]4C[C@](C)(N)[C@H](O)[C@H](C)O4)Oc4ccc(cc4Cl)[C@H]3O)c3ccc(O)c(c3)-c3c(O)cc(O)cc32)CC1.[Br-] (stereo in doubt) | 1 | 32 | 32 | 32 | 32 | 32
CN[C@H](CC(C)C)C(=O)N[C@H]1C(=O)N[C@@H](CC(N)=O)C(=O)N[C@H]2C(=O)N[C@H]3C(=O)N[C@H](C(=O)N[C@H](C(=O)N4CCN(C)CC4)c4cc(O)cc(O)c4-c4cc3ccc4O)[C@H](O)c3ccc(c(Cl)c3)Oc3cc2cc(c3O[C@@H]2O[C@H](CO)[C@@H](O)[C@H](O)[C@H]2O[C@H]2C[C@](C)(N)[C@H](O)[C@H](C)O2)Oc2ccc(cc2Cl)[C@H]1O (stereo in doubt) | 4 (≈ 2.61 µM) | > 128 | > 128 | > 128 | > 128 | > 128
CN[C@H](CC(C)C)C(=O)N[C@H]1C(=O)N[C@@H](CC(N)=O)C(=O)N[C@H]2C(=O)N[C@H]3C(=O)N[C@H](C(=O)N[C@H](C(=O)O)c4cc(O)cc(O)c4-c4cc3ccc4O)[C@H](O)c3ccc(c(Cl)c3)Oc3cc2cc(c3O[C@@H]2O[C@H](CO)[C@@H](O)[C@H](O)[C@H]2O[C@H]2C[C@](C)(NC(=O)CCCCCCCCCCC[n+]3ccc(N)cc3)[C@H](O)[C@H](C)O2)Oc2ccc(cc2Cl)[C@H]1O.O=C(O)C(F)(F)F.[Br-] | 1 | 32 | > 128 | > 128 | > 128 | > 128
CN[C@H](CC(C)C)C(=O)N[C@H]1C(=O)N[C@@H](CC(N)=O)C(=O)N[C@H]2C(=O)N[C@H]3C(=O)N[C@H](C(=O)N[C@H](C(=O)O)c4cc(O)cc(O)c4-c4cc3ccc4O)[C@H](O)c3ccc(c(Cl)c3)Oc3cc2cc(c3O[C@@H]2O[C@H](CO)[C@@H](O)[C@H](O)[C@H]2O[C@H]2C[C@](C)(NC(=O)CCCCCCCCCCC[n+]3cccc(O)c3)[C@H](O)[C@H](C)O2)Oc2ccc(cc2Cl)[C@H]1O.[Br-] | 8 | 64 | > 128 | > 128 | > 128 | > 128
CCCCCCCCCCCCCC[N+]1(C)CCN(C(=O)c2ccc(CN[C@@]3(C)C[C@H](O[C@H]4[C@H](Oc5c6cc7cc5Oc5ccc(cc5Cl)[C@@H](O)[C@@H](NC(=O)[C@@H](CC(C)C)NC)C(=O)N[C@@H](CC(N)=O)C(=O)N[C@H]7C(=O)N[C@H]5C(=O)N[C@H](C(=O)N[C@H](C(=O)O)c7cc(O)cc(O)c7-c7cc5ccc7O)[C@H](O)c5ccc(c(Cl)c5)O6)O[C@H](CO)[C@@H](O)[C@@H]4O)O[C@@H](C)[C@H]3O)cc2)CC1.[Br-] | 2 | 64 | > 128 | > 128 | > 128 | > 128
CN[C@H](CC(C)C)C(=O)N[C@H]1C(=O)N[C@@H](CC(N)=O)C(=O)N[C@H]2C(=O)N[C@H]3C(=O)N[C@H](C(=O)N[C@H](C(=O)O)c4cc(O)cc(O)c4-c4cc3ccc4O)[C@H](O)c3ccc(c(Cl)c3)Oc3cc2cc(c3O[C@@H]2O[C@H](CO)[C@@H](O)[C@H](O)[C@H]2O[C@H]2C[C@](C)(NC(=O)CCCCCCCCCCC[n+]3cccc(Br)c3)[C@H](O)[C@H](C)O2)Oc2ccc(cc2Cl)[C@H]1O.[Br-] | 4 | 32 | > 128 | > 128 | > 128 | > 128
CN[C@H](CC(C)C)C(=O)N[C@H]1C(=O)N[C@@H](CC(N)=O)C(=O)N[C@H]2C(=O)N[C@H]3C(=O)N[C@H](C(=O)N[C@H](C(=O)O)c4cc(O)cc(O)c4-c4cc3ccc4O)[C@H](O)c3ccc(c(Cl)c3)Oc3cc2cc(c3O[C@@H]2O[C@H](CO)[C@@H](O)[C@H](O)[C@H]2O[C@H]2C[C@](C)(NC(=O)CCCCCCCCC[n+]3ccc(C)cc3)[C@H](O)[C@H](C)O2)Oc2ccc(cc2Cl)[C@H]1O.[Br-] | 8 | > 128 | > 128 | > 128 | > 128 | > 128
CN[C@H](CC(C)C)C(=O)N[C@H]1C(=O)N[C@@H](CC(N)=O)C(=O)N[C@H]2C(=O)N[C@H]3C(=O)N[C@H](C(=O)N[C@H](C(=O)O)c4cc(O)cc(O)c4-c4cc3ccc4O)[C@H](O)c3ccc(c(Cl)c3)Oc3cc2cc(c3O[C@@H]2O[C@H](CO)[C@@H](O)[C@H](O)[C@H]2O[C@H]2C[C@](C)(NC(=O)CCCCCCCCCCC[n+]3ccc(C)cc3)[C@H](O)[C@H](C)O2)Oc2ccc(cc2Cl)[C@H]1O.[Br-] | 4 | > 128 | > 128 | > 128 | > 128 | > 128
CCCCCCCCCCCCCCCC[N+]1(C)CCN(C(=O)[C@H]2NC(=O)[C@H]3NC(=O)[C@H](NC(=O)[C@@H]4NC(=O)[C@H](CC(N)=O)NC(=O)[C@H](NC(=O)[C@@H](CC(C)C)NC)[C@H](O)c5ccc(c(Cl)c5)Oc5cc4cc(c5O[C@@H]4O[C@H](CO)[C@@H](O)[C@H](O)[C@H]4O[C@H]4C[C@](C)(N)[C@H](O)[C@H](C)O4)Oc4ccc(cc4Cl)[C@H]3O)c3ccc(O)c(c3)-c3c(O)cc(O)cc32)CC1.[Br-] (stereo in doubt) | 8 | > 128 | 64 | > 128 | > 128 | > 128
CCCCCCCCCCCC[N+]1(C)CCN(C(=O)c2ccc(CN[C@@]3(C)C[C@H](O[C@H]4[C@H](Oc5c6cc7cc5Oc5ccc(cc5Cl)[C@@H](O)[C@@H](NC(=O)[C@@H](CC(C)C)NC)C(=O)N[C@@H](CC(N)=O)C(=O)N[C@H]7C(=O)N[C@H]5C(=O)N[C@H](C(=O)N[C@H](C(=O)O)c7cc(O)cc(O)c7-c7cc5ccc7O)[C@H](O)c5ccc(c(Cl)c5)O6)O[C@H](CO)[C@@H](O)[C@@H]4O)O[C@@H](C)[C@H]3O)cc2)CC1.[Br-] | 2 | 64 | > 128 | > 128 | 32 | 16
CCCCCCCCCCCCCC[n+]1ccc(C(=O)NCCNC(=O)[C@H]2NC(=O)[C@H]3NC(=O)[C@H](NC(=O)[C@@H]4NC(=O)[C@H](CC(N)=O)NC(=O)[C@H](NC(=O)[C@@H](CC(C)C)NC)[C@H](O)c5ccc(c(Cl)c5)Oc5cc4cc(c5O[C@@H]4O[C@H](CO)[C@@H](O)[C@H](O)[C@H]4O[C@H]4C[C@](C)(N)[C@H](O)[C@H](C)O4)Oc4ccc(cc4Cl)[C@H]3O)c3ccc(O)c(c3)-c3c(O)cc(O)cc32)cc1.[Br-] (stereo in doubt) | 4 | 64 | > 128 | > 128 | > 128 | > 128
CCCCCCCCCCCC[n+]1ccc(C(=O)NCCNC(=O)[C@@H]2NC(=O)[C@H]3NC(=O)[C@H](NC(=O)[C@@H]4NC(=O)[C@H](CC(N)=O)NC(=O)[C@H](NC(=O)[C@@H](CC(C)C)NC)[C@H](O)c5ccc(c(Cl)c5)Oc5cc4cc(c5O[C@@H]4O[C@H](CO)[C@@H](O)[C@H](O)[C@H]4O[C@H]4C[C@](C)(N)[C@H](O)[C@H](C)O4)Oc4ccc(cc4Cl)[C@H]3O)c3ccc(O)c(c3)-c3c(O)cc(O)cc32)cc1.[Br-] (stereo in doubt) | 2 | 64 | > 128 | > 128 | 64 | 16
